The source of these data is patent publication US20240269094A1, “Treatment of canine dermatitis and skin irritation” (priority 2023, published 2024).

Series [1] concerns oral cavity. The note with it: 100 ppm in 5% sucrose; scale of 0 to 9 units; Johnson, 2018; cited from earlier work.
Series [2] has as its target TRPM8 (Homo sapiens, UniProt Q7Z2W7). The arrangement: EC50; other: Johnson, 2.2/2.2. The note with it: Ref. 5 (Johnson et al., 2018); cited from earlier work.
Series [3] has as its system philtrum skin. Put plainly: Philtrum (skin) bioassay of cooling. The series is classed as in vivo, human. The following applies: for Comments: quality of sensation on philtrum skin: 8% wt/vol; for Duration of cooling: 8% wt/vol on philtrum; for Duration-Skin: Wei, Table 6, see FIG. 6. On the procedure: FIG. 5. The philtrum bioassay. Cooling agents, prepared as a or in solution are applied to the philtrum skin. Cooling intensity is rated on a scale of 0 to 3, with 0=no changes in sensation, 1=a slight feeling of coolness, cold or tingling, 2=a clearcut feeling of coolness of cold, and 3=a robust feeling of coolness of cold. The duration of cooling was recorded until two zeroes were measured 10 min apart.
TRPM8 EC50 Receptor Assay. […] A receptor assay is a standard tool and can be done quickly. For example, in a 384-plate assay, you can easily test 10 compounds and get dose-response data. For a chemical agonist, an in vitro TRPM8 assay generates an EC50 (median effective concentration). But the quantitative correlation between the EC50 on TRPM8 and cooling sensation was vague. That is, the science was “roughly” predictive, but there was considerable uncertainty for each agonist. […] Philtrum (Skin) Assay. For cooling sensations on the skin, it is necessary to test the substance on the skin. Wei proposed the use of the skin on the philtrum as a test site for cooling activity of chemicals (FIG. 5). The test substance is dissolved in a carrier, such as solvent, gel, or ointment and applied to the philtrum, a surface area of […]. The subject records sensations on the philtrum and environs as:
The subject is given a form to record observations and instructions to mark sensations on the philtrum and environs as: 0=no changes in sensation, 1=a slight feeling of coolness, cold, or tingling, 2=a clearcut feeling of coolness or cold, and 3=a robust feeling of coolness and cold.
The intervals for measurements are usually at 5, to 15 min after application, until two successive zeros are obtained. The philtrum application site is the midline groove above the upper lip border and vermilion. The gel is placed on the philtrum with a cotton-tipped applicator up to the nasolabial folds and sometimes, but not deliberately, on the lower nostrils (subnasale). Cold receptors densely innervate the philtrum skin (FIG. 5), second only to the surfaces of the eyeball and anogenitalia. The lips also have a high density of “cold spots.” Hensel et al. mapped the cold spots on the human face (cited in Dhaka et al., 2008). In animals such as the rat the mystacial pad (nose pad with vibrissae) is abundantly labeled with TRPM8-fibers. “Cold Points” linked to single-unit neuronal discharges can be measured in experimental animals. Wei has direct experience in such experiments (Poree et al., 1989).
Dip a cotton-tipped applicator (Puritan Cotton-tipped applicators, or Q-Tips) into a reservoir bottle containing the liquid or semi-liquid (gel) test substance. The composition adhering to the cotton (about 0.1 mL) is put on the skin. The philtrum site is shown in a cartoon. A subject can practice the method in front of a mirror with a high-intensity light source. Results for test on the philtrum are in Table 8 and FIG. 5. See data in FIG. 6. Cooling agents, prepared as an 8% wt./vol. gel, was tested topically on the philtrum skin assay. The duration of cooling was recorded (min on y-axis). The startling activity of FEMA 4557, cooling for ˜3 hr, was unexpected and surprising. FEMA 3784 is also known as Cool 10 or menthoxypropanediol. […]

For series [4], the target named is T1, TRPM8 (Rattus norvegicus, UniProt Q8R455). Also noted: EC50; other: Sherkheli, 196/1500. The note with it: Ref. 4 (Sherkheli et al., 2010); cited from earlier work.
Series [5] has as its system tongue. Put plainly: Oral cavity screen: 15 mg of crystals on the dorsal surface of the tongue. The class given is in vivo, human. On the procedure: In this discovery, sensory activity in the oral cavity was the first screen. The goal was to identify candidates producing unusual sensations. Test agents, prepared as 15 mg of white crystals, were placed on the dorsal surface of the tongue. The chemical structures and identifying characteristics are in Table 1. […] Related cooling agents were not freezing cold, except for WS-23.

Series [6] has as its target T2, TRPM8 (Mus musculus, UniProt Q8R4D5). Also noted: EC50. The note with it: Ref. 3 (Bodding et al., 2007); cited from earlier work.
For series [7], the system named is itch of urticaria and scalp itch. The note with it: Kang et al., 2022; cited from earlier work.
Series [8] deals with itch induced by various pruritogens. Put plainly: Itch induced by pruritogens on skin of healthy volunteers (FIG. 1). The class given is in vivo, human. The following applies: gel on skin, five test pruritogens, itch self-rated 0 to 10 for 10 min. On the procedure:
FIG. 1. Topical Application of a cooling DIPA1-7 gel on skin of healthy volunteers inhibits itch induced by various pruritogens. n=30 subjects per trial. Results of Prof. Hyeone Kim, Sacred Heart Hospital, […] University, Seoul, Korea. Itch intensity was self-rated on a scale of 0 to 10 for 10 min (maximum score=100). […] Further details will be described in a scientific paper.

The subject of series [9] is tongue. Put plainly: Oral cavity screen: 15 mg of crystals on the dorsal surface of the tongue. The series is classed as in vivo, human. The following applies: less than 2 mg on the tongue.
The test system of series [10] is canine dermatitis, scratching and licking. In words: Topical treatment of canine skin irritation (case studies). The class given is in vivo, dog. The following applies: Study 3, repeated bathing. On the procedure:
The Applicant gave the dog's owner an airless pump dispenser containing 8% wt/vol of FEMA 4557 dispersed in 4 mg/ml of carbapol 980, formulated with 1% ethanol and 1% menthol, and instructed him to apply the gel to the skin of the dog's belly and groin.
A twelve-year-old West Highland Terrier had periodic episodes of seasonal skin allergy. […] The owner of the dog, who had access to a pharmacy, applied nystatin ointment and a potent skin steroid cream containing […].
Next, a 20% wt/vol FEMA 4557 solution, dissolved in propylene glycol, was applied to the interdigital folds of the paws with a cotton-tipped applicator (FIG. 9).

In series [11] the target is T2, TRPM8. The note with it: Ref. 2 (Behrendt et al., 2004); cited from earlier work.
Series [12] deals with T1, TRPM8. The note with it: Ref. 1 column (McKemy et al., 2002); cited from earlier work.
The target in series [13] is T3, TRPA1 (Homo sapiens, UniProt O75762).
T3 construct: expressed in transfected cells
Put plainly: Bioassay in cells transfected with TRPA1 (FIG. 4). The class given is cell-based. The source says: FIG. 4 Bioassay of FEMA 4557 (labeled as BUDA on the graph) in TRPM8 and TRPA1. Data from the laboratory of Prof. Seok-Yong Lee at Duke University.
FIG. 4 Bioassay of FEMA 4557 (labeled as BUDA) in TRPM8 and TRPA1. Data of Prof. Seok-Yong Lee at Duke University.

Series [14] relates to canine atopic dermatitis. The note with it: cited from earlier work.
Series [15] deals with scratching excoriations. The following applies: ointment; Biro et al., 2005; cited from earlier work.
A short description of series [16]: Comparison of classes of cooling agents for applications on the canine skin (grades). Also noted: species or system dog; key: A = excellent; B = average; C = poor; F = does not work. The following applies: grade. An excerpt: Here are comments on grades assigned to specific classes of cooling agents (Table 3). […] The p-menthane carboxamides cover a wide range of compounds, but they are difficult for skin formulation to achieve a long duration of action. Menthol is short-acting and irritating, especially when it is near the ocular surface. The 1-dialkylphosphorylalkane known as DIPA1-7 (Cryosim-1, 1-dialkylphosphorylheptane) is an excellent skin agent, but costs are high for dermatological applications.

Read-outs that look alike come from different tables or passages of the source.

A word on the EC50: it is the midpoint of the concentration-response curve.

T2 sequence (Q8R4D5 whole entry): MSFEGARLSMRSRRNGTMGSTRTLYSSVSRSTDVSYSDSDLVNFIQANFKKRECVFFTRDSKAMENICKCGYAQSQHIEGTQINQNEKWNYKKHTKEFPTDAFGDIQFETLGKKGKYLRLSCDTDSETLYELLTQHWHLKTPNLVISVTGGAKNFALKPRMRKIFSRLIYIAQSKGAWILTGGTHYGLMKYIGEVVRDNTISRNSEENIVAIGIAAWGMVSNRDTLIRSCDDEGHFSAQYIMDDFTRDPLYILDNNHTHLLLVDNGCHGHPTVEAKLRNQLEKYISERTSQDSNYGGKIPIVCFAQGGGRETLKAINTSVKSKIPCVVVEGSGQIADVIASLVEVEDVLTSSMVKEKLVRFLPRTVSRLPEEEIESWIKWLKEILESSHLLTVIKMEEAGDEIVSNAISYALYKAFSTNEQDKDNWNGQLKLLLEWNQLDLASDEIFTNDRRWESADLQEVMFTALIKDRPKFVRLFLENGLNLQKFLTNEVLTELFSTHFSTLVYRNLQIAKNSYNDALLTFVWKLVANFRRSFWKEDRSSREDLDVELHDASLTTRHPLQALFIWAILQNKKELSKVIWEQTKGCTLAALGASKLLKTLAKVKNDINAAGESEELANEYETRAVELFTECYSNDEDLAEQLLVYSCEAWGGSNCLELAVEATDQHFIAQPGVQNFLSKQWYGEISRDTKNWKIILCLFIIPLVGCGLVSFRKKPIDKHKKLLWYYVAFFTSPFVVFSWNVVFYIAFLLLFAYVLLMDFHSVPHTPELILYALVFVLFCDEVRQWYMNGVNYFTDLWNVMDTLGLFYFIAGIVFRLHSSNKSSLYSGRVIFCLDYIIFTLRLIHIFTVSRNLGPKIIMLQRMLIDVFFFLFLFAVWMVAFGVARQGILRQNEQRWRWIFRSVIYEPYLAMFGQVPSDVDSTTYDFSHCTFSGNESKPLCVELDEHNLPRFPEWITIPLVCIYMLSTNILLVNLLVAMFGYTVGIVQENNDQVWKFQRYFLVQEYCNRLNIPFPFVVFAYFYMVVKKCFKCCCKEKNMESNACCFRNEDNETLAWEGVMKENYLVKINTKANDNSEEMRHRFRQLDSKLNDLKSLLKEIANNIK
T1 sequence (Q8R455 whole entry): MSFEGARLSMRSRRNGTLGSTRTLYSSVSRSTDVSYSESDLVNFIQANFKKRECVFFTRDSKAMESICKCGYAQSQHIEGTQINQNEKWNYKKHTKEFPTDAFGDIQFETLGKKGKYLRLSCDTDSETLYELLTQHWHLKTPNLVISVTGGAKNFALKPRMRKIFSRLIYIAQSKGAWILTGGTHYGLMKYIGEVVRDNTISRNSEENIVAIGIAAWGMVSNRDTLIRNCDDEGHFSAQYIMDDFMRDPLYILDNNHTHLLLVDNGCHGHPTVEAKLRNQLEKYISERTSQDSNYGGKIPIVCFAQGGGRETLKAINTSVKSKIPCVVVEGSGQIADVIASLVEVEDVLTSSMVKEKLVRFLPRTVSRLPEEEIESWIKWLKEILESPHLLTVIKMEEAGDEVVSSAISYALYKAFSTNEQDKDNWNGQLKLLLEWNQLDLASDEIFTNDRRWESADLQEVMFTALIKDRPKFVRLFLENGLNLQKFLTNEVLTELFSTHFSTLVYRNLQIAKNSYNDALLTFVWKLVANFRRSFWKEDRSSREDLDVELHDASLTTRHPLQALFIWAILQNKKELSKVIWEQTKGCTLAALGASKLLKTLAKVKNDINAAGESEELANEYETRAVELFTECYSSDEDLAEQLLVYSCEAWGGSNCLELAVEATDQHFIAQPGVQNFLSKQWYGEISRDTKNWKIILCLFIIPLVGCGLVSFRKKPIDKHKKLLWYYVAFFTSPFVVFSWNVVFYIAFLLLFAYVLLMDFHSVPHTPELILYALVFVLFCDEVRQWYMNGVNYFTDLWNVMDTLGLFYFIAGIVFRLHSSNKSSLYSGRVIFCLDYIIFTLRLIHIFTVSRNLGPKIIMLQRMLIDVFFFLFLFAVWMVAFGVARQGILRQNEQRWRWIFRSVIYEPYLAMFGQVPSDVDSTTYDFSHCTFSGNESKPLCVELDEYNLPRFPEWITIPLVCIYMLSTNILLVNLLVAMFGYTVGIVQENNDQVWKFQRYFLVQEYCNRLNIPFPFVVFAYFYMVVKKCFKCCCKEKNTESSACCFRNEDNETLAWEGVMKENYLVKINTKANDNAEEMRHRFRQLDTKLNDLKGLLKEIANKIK
T3 sequence (O75762 whole entry, species assumed): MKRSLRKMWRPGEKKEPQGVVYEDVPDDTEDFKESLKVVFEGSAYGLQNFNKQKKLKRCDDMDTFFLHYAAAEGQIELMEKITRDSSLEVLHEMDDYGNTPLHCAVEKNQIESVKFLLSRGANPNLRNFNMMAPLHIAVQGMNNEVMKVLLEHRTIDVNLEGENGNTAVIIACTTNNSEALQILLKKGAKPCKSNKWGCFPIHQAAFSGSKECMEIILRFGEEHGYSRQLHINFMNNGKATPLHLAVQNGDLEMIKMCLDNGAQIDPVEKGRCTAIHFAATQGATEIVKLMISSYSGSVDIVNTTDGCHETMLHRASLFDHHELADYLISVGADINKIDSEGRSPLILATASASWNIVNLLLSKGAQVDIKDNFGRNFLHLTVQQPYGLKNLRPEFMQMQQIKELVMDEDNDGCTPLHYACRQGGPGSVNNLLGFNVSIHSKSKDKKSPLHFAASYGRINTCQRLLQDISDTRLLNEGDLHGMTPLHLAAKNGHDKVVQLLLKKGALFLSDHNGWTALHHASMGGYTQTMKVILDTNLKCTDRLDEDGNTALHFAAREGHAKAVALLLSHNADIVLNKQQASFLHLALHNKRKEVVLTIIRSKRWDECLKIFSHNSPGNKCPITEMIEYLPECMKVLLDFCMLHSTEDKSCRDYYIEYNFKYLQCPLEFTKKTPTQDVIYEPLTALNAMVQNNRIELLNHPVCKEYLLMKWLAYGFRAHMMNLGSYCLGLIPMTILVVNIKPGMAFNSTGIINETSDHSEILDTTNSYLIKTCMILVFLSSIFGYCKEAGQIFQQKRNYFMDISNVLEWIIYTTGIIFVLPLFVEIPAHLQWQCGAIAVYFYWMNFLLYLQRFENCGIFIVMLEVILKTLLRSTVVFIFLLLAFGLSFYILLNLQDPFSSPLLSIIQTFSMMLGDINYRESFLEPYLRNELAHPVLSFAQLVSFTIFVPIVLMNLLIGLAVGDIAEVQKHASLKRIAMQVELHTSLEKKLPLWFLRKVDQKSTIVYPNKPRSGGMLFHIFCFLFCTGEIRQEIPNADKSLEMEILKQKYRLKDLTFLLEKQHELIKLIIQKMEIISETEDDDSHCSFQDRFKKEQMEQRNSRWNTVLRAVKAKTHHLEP

For `COc1ccc(NC(=O)[C@@H]2C[C@H](C)CC[C@H]2C(C)C)cc1` [WS-12], in series [1], the “Cooling Intensity Oral Cavity Scaled” value is recorded as 3. Besides, the concentration for a half-maximal effect (EC50) in [2] is 22.1 µM. Also, in series [3], the “Comments: quality of sensation on philtrum skin” value is recorded as “pleasant cool sensations on skin”, the Duration of cooling stood at 38 ± 4 min and the Duration-Skin worked out at 0.4 h. Moreover, the EC50 in series [4] was 12 µM. In addition, in series [5], the “Effects of 15 mg on tongue: duration” value is recorded as approximately 20 min and the “Effects of 15 mg on tongue: sensation” value is recorded as “pleasant cooling in oral cavity”. In addition, the EC50 in series [6] was 0.2 µM.

For `CCOC(=O)[C@@H](C)NC(=O)[C@@H]1C[C@H](C)CC[C@H]1C(C)C` [CPS-369], the EC50 in series [4] is 65 µM; in series [6] it was 3.6 µM.

On to `CCCCCCCP(=O)(C(C)C)C(C)C` [DIPA-1-7, 1-diisopropylphosphorylheptane], for which, in series [3] (on skin, contrast to FEMA 4557), the adverse skin sensations result was “frigid cold and irritation”. The “Effects of 15 mg on tongue: sensation” value in [5] is recorded as “stinging, painful cold”. The “itch in human subjects” value in series [7] is “inhibited the itch of urticaria and scalp itch”. The “inhibition of pruritogen-induced itch” value in series [8] is given as “significantly inhibited itching”. For the same molecule, the “sensation on the tongue” value in [9] is “frigid, stinging, icy, and painful cold”.

With `Clc1ccc(COC(Cn2ccnc2)c2ccc(Cl)cc2Cl)c(Cl)c1` (stereo not shown) [miconazole], in series [10], the “effect of antifungal shampoo on skin irritation” value was “did not make any difference”.

Take `CC(=O)N1CCN(c2ccc(OCC3COC(Cn4ccnc4)(c4ccc(Cl)cc4Cl)O3)cc2)CC1` (stereo not shown) [ketoconazole]: the “effect of antifungal shampoo on skin irritation” value in series [10] is recorded as “did not make any difference”.

Consider `CC(C)[C@@H]1CC[C@@H](C)C[C@H]1O` [l-menthol], for which, in series [1], the “Cooling Intensity Oral Cavity Scaled” value is 5. For the same molecule, the EC50 in [11] is 4.1 µM; in series [12], 67 µM; in [4], 196 µM; in series [6] it was 10.4 µM. Moreover, the Duration-Skin in series [3] came out at 0.3 h.

As to `C=CCN=C=S` [AITC, allyl isothiocyanate], the “activity on TRPA1” value in series [13] was “active”.

`CCOC(=O)CNC(=O)[C@@H]1C[C@H](C)CC[C@H]1C(C)C` [WS-5]: the “Cooling Intensity Oral Cavity Scaled” value in series [1] is on record as 6. In addition, the EC50 in series [2] was 0.5 µM. In [3], the “Comments: quality of sensation on philtrum skin” value is on record as “pleasant cool sensations of skin”, the Duration of cooling was found to be 51 ± 4 min and the Duration-Skin was 0.5 h. In series [4], the EC50 is 26 µM. Moreover, in [5], the “Effects of 15 mg on tongue: duration” value is given as approximately 12 min and the “Effects of 15 mg on tongue: sensation” value was “pleasant cooling in oral cavity”.

As for `CC(C)OC(=O)CNC(=O)[C@@H]1C[C@H](C)CC[C@H]1C(C)C` [Ax-8, p-Menthane-Gly-OiPr], in series [5], the “Effects of 15 mg on tongue: duration” value is approximately 27 min and the “Effects of 15 mg on tongue: sensation” value was “pleasant cooling in oral cavity”.

With `CCCCCCCP(=O)(C(C)CC)C(C)CC` (stereo not shown) [WS-148], the half-maximal effective concentration (EC50) in series [6] was 4.1 µM.

Turning to `CNS(=O)(=O)C[C@H]1CC[C@H](N(C)c2ncnc3[nH]ccc23)CC1` [oclacitinib], the “onset of anti-scratching effects” value in series [14] (oral tablet once or twice a day) is “as early as four hours after dosing”. The Onset in series [14] (oral tablet) is reported as 15 min, hours.

In the case of `O=C1NC(c2cccc([N+](=O)[O-])c2)=CCN1c1ccccc1O` [icilin], in series [12], the EC50 was 0.36 µM. In addition, in [15], the scratching excoriations entry is recorded as “prevented scratching excoriations”. Further, in series [16], the “Absence of Irritancy” value is listed as “A”, the Potency entry is listed as “A”, the “Rapid Onset” value is recorded as “B” and the “Safety in Use” value is recorded as “A”. Also, the “Sufficient Duration” value in series [16] is “A”. For the same molecule, the EC50 in [4] was 7 µM. The EC50 in series [6] is 1.4 µM.

In the case of `CC(C)[C@@H]1CC[C@@H](C)C[C@H]1OCC(O)CO` (stereo partly shown) [Cool 10, menthoxypropanediol], the EC50 in series [11] is 6 µM.

Turning to `CCNC(=O)[C@@H]1C[C@H](C)CC[C@H]1C(C)C` [WS-3], the “Cooling Intensity Oral Cavity Scaled” value in series [1] is 5.2. Further, the EC50 in [11] was 3.7 µM; in [2] it was 5.9 µM; in [4] it was 210 µM. Moreover, the Duration-Skin in [3] was 0.3 h. In series [5], the “Effects of 15 mg on tongue: duration” value is approximately 8 min. The “Effects of 15 mg on tongue: sensation” value in series [5] is “pleasant cooling in oral cavity”.
